Test results reported in patent US20160113904A1, “SKIN CARE PRODUCTS COMPRISING SUBSTITUTED HYDROXYPROLINE WITH UNSATURATED FATTY ACIDS DERIVATIVES” (MEDWELL LABORATORIES LTD., priority 2013, published 2016).
Entries after “also recorded” stand apart in the source; their conditions may differ.

Experiments:
Assay type in all cases: in vivo, human
[1] = system: healthy female volunteers, facial wrinkles; test: Anti wrinkle test: volunteers' subjective assessment of wrinkles; conditions: treated side, scale 0-10
Procedure: (§1) Ten healthy female volunteers were included and completed the study.
A subjective assessment of facial wrinkles condition was performed by the volunteers at each time point.
(§2) A cosmetic anti wrinkle product MW-001 was applied on half of the face for four weeks by each volunteer while the other half served as a control, without any product application during the whole test period.
The volunteers filled out a questionnaire after 2 and 4 weeks of application.
The volunteers were asked to answer a questionnaire after four weeks of application, regarding the assessment of each of the tested products, and to evaluate the improvement of the skin beneath and at the side of the eye.

[2] = system: healthy female volunteers, facial skin; test: Anti wrinkle test: hydration level by Corneometer; conditions: face, treated area
Procedure: as §1
(§3) Moisture level of the skin (corneometry) and TEWL (Trans Epidermal Water Loss) were measured at each time point.
as §2
Hydration level was evaluated by Corneometer, Courage & Khazaka, CK. The probe of the corneometer was placed on the skin at a constant pressure and measurements of skin hydration were taken. Skin hydration was recorded at T0, T1 and T2. Each measurement was repeated three times, and the average of the repeated measurements was calculated and assembled in the test results. The room temperature and humidity were kept constant.
The corneometry results are provided in arbitrary units.

[3] = system: volunteers with Atopic dermatitis; test: Atopic dermatitis trial: erythema level by Mexameter; conditions: for Change in erythema level / Erythema level: treated area; for Erythema level: Mexameter
Procedure: (§4) Ten volunteers aged 2-30 years participated in the trial. Four females and six males.
(§5) Volunteers were instructed to apply the product only on one side of the body, on the worst affected area, while the other side was defined as the control area and was not treated. The tested material, a body lotion product, was applied 1-3 times a day for a period of 4 weeks.
Erythema level was evaluated by Mexameter, Courage & Khazaka, CK. The probe of the Mexameter was placed on the skin at a constant pressure and measurements of skin hydration were taken. Skin erythema level was recorded at baseline, after 1 week and after 2 weeks of treatment.
(§6) A statistical comparison between T0 and the other two time-points (T1 and T2) and between the treated and the Control areas were made according to the Wilcoxon signed-ranks test, while p<0.05 indicated a significant difference

[4] = system: volunteers with psoriasis; test: Psoriasis trial: side effects; conditions: topical use for 4 weeks
Text: The participants were asked to keep a record of daily applications and to note any side effects resulting from product application.
Volunteers were asked to keep a record and report any side effects, such as dryness, burning sensation, peeling of the skin, redness or any other visible changes, and report immediately to study director.

[5] = system: volunteers with psoriasis; test: Psoriasis trial: study director's evaluation of lesions; conditions: for Redness level / Scale level / Thickness of the Skin / Infected area size: treated area
Procedure: In Examples 1-3 an emulsion type O/W Creams of MWL-001 (2.5% and 5% w/w) was prepared using Emulgade® SE emulsifiers (glyceryl stearate), Ceteareth-20, cetearyl alcohol, cetyl palmitate, cetearyl alcohol-Lanette®, isopropyl myristate, caprilic/capric acid triglycerides (Myritol®318), strearic acid, a Trietanolamine and purified water, according to Ph Eur 6.0.
(§7) Fifteen volunteers aged 29-73 with psoriasis.
The volunteers were instructed to use the cream at least once a day, for 4 weeks.
(§8) Volunteers were instructed to apply the product only on one side of the body, on the worst affected area at least once a day, for 4 weeks, while the other side was defined as the control area and was not treated.
Each volunteer was examined at baseline (T0), after two weeks (T1) and after 4 weeks of using the product (T2). The study Director rated the state of the skin according to the parameters of scales severity, thickness of the plaque, redness and the size of the lesions. Erythema level was documented at each time point.
The following parameters were evaluated:
a) Size of lesion b) Thickness of lesion
The parameters mentioned above were evaluated on a scale of 0 to 5 by the study director.
(§9) A statistical comparison between T0 and the other two time-points (T1 and T2) and between the treated and the Control areas were made by paired sample t-test, while p<0.05 indicated a significant difference
The results of 15 volunteers at each time point are presented in the Tables below and in the relevant Figures. All parameters were assessed in a scale of 0-5 where 0=none and 5=very extreme

[6] = system: volunteers with psoriasis; test: Psoriasis trial: erythema level by Mexameter; conditions: treated area
Procedure: as §7, §8
Erythema level was evaluated by Mexameter, Courage & Khazaka, CK. The probe of the Mexameter was placed on the skin at a constant pressure find measurements of skin hydration were taken. Skin erythema level was recorded at baseline, after 2 weeks and after 4 weeks of treatment.
as §9

[7] = system: volunteers with psoriasis; test: Psoriasis trial: subjective pruritus level; conditions: for Pruritus level: treated area, scale 0-5
Text: as §7, §8
The volunteers were asked to assess the pruritus level on a 0-5 scale at T0, T1 and T2.
as §9

[8] = system: volunteers with Atopic dermatitis; test: Atopic dermatitis trial: transepidermal water loss (TEWL) by Tewameter; conditions: treated area
Procedure: as §4, §5
Transepidermal water loss (TEWL) was measured by Tewameter 300 TM, Courage & Khazaka, CK. TEWL was recorded at baseline and after one week and after two weeks of treatment. Room temperature and humidity were kept constant.
as §6

[9] = system: healthy female volunteers, facial skin; test: Anti wrinkle test: TEWL by Tewameter; conditions: face, treated area
Procedure: as §1, §3, §2
TEWL (the ability not to harm the skin barrier) was measured with Tewameter TM 300, Courage & Khazaka, CK. TEWL was recorded at T0, T1 and T2. The results of TEWL in each measurement were recorded after stabilization of the curve of the results in real time. Room temperature and humidity were constant.

[10] = any of the sides, whole study period, p>0.05
[11] = treatment area, after 4 weeks, p<0.05

CCC=CCC=CCC=CCC=CCC=CCC=CCCC(=O)N1CC(O)CC1C(=O)O (stereo in doubt) [MW-001]
Volunteers' grading of improvement of wrinkle appearance ([1]; after 2 weeks of treatment): 3.5
Volunteers' grading of wrinkle improvement around the eyes ([1]; after 2 weeks of treatment): 3.5
Volunteers' grading of wrinkle improvement around the eyes ([1]; after 4 weeks of treatment): 4.3
Volunteers' grading of improvement in wrinkles appearance ([1]; printed 'After 2 weeks of treatment' (second statement)): 4.6
Average hydration level ([2]; T0 baseline): 60.9 arbitrary units
Average hydration level ([2]; T1 after 2 weeks of use): 53.4 arbitrary units
Average hydration level ([2]; T2 after 4 weeks of use): 53.5 arbitrary units
Change in erythema level ([3]; Baseline): 100%
Erythema level ([3]; T0 baseline): 620.5
Erythema level ([3]; T1 after one week): 562.7
Erythema level ([3]; T2 after two weeks): 600.2
Change in erythema level ([3]; Week 1, relative to baseline): 91%
Change in erythema level ([3]; Week 2, relative to baseline): 97%
Erythema level, statistical analysis of change ([3]; treated side, after 1 week of treatment): decreased significantly
Erythema level, statistical analysis versus baseline ([3]; treated side, after the increase following week 1): not significantly different
Side effects / safety [4]: No side effects were observed; also recorded: safe for use
Overall efficacy conclusion [5]: efficient in the treatment of psoriasis
Lesion area size, statistical analysis of decrease ([5]; after 4 weeks of application): insignificant
Scale parameter, treatment side versus control side ([5]; after both 2 weeks (T1) and 4 weeks (T2)): Significant differences
Redness parameter, statistical analysis of change [5, 10]: No significant change
Redness level ([5]; T0 baseline, scale 0-5): 3.3
Scale level ([5]; T0 baseline, scale 0-5): 4.5
Thickness of the Skin ([5]; T0 baseline, scale 0-5): 3.0
Infected area size ([5]; T0 baseline, scale 0-5, 15 volunteers): 4.1
Infected area size ([5]; T1 after two weeks, scale 0-5): 3.8
Redness level ([5]; T1 after two weeks, scale 0-5): 3.5
Scale level ([5]; T1 after two weeks, scale 0-5): 4.1
Thickness of the Skin ([5]; T1 after two weeks, scale 0-5): 2.6
Infected area size ([5]; T2 after four weeks, scale 0-5): 3.9
Redness level ([5]; T2 after four weeks, scale 0-5): 3.2
Scale level ([5]; T2 after four weeks, scale 0-5): 3.8
Thickness of the Skin ([5]; T2 after four weeks, scale 0-5): 2.4
Lesion area size, statistical analysis of change ([5]; treatment area, after 2 weeks of application): significant decrease
Scales parameter, statistical analysis of change [5, 11]: significant improvement
Thickness parameter, statistical analysis of change [5, 11]: significant improvement
Erythema level ([6]; T0 baseline): 562.1
Erythema level ([6]; T1 after two weeks): 517.5
Erythema level ([6]; T2 after four weeks): 576.7
Pruritus level, statistical analysis of change [7, 10]: No significant change
Pruritus level ([7]; T0 baseline): 2.1
Pruritus level ([7]; T1 after two weeks): 1.6
Pruritus level ([7]; T2 after four weeks): 1.3
Change in TEWL level ([8]; Baseline): 100%
TEWL level ([8]; T0 baseline): 13.6 g/m2/h
TEWL level ([8]; T1 after one week): 12.5 g/m2/h
TEWL level ([8]; T2 after two weeks): 10.5 g/m2/h
Change in TEWL level ([8]; Week 1, relative to baseline): 92%
Change in TEWL level ([8]; Week 2, relative to baseline): 78%
Average TEWL level ([9]; T0 baseline): 7.8 g/hm^2
Average TEWL level ([9]; T1 after 2 weeks of use): 9.4 g/hm^2
Average TEWL level ([9]; T2 after 4 weeks of use): 7.6 g/hm^2
